The source of these data is US5008260A, “Cephem derivatives” (Eisai Co., Ltd., priority 1985, dated 1991).

≈ marks a conversion by molar mass, not a printed value.

The conditions of series [1]: mouse, intravenous injection; prior-art compound; cited from earlier work.
Series [2] has as its system Pseudomonas maltophilia E04004. The experiment in a line: Antibacterial activity (MIC), Pseudomonas maltophilia E04004. The series is classed as cell-based. The settings on record: Stenotrophomonas maltophilia.
In series [3] the test system is Pseudomonas aeruginosa EP-01. The experiment in a line: Antibacterial activity (MIC), Pseudomonas aeruginosa EP-01. The series is classed as cell-based. The settings on record: EP01.
The subject of series [4] is Staphylococcus aureus E31106. The experiment in a line: Antibacterial activity (MIC), Staphylococcus aureus E31106. Type of series: cell-based. To be noted: Staphylococcus aureus E31106, lactamase producing bacteria.
The subject of series [5] is Serratia marcescens ES-75. The experiment in a line: Antibacterial activity (MIC), Serratia marcescens ES-75. Type of series: cell-based. The settings on record: ES75.
Series [6] has as its system Staphylococcus aureus 209-P. The experiment in a line: Antibacterial activity (MIC), Staphylococcus aureus 209-P. Type of series: cell-based.
A short description of series [7]: Acute toxicity LD50 (mouse, intravenous injection). The settings on record: in vivo.
Series [8] concerns Escherichia coli NIHJ. The experiment in a line: Antibacterial activity (MIC), Escherichia coli NIHJ. Type of series: cell-based.
The subject of series [9] is Citrobacter freundii EC-34. The experiment in a line: Antibacterial activity (MIC), Citrobacter freundii EC-34. The settings on record: EC34; Citrobacter freundii EC-34, lactamase producing bacteria. Type of series: cell-based.

The term MIC denotes the smallest concentration in the dilution series that meets the test's criterion for growth inhibition. High values mean a less susceptible organism, low ones a more susceptible organism. Broadly, the LD50 is the dose at which mortality reaches 50%. The low end stands for a more toxic substance, the high end for a less toxic substance.

Regarding `CO/N=C(\C(=O)N[C@@H]1C(=O)N2C(C(=O)[O-])=C(C[N+]34CCC(CC3)CC4)CS[C@H]12)c1csc(N)n1` [7β-[(Z)-2-(2-aminothiazol-4-yl)-2-methoxyiminoacetamido]-3-(1-quinuclidinio)methyl-3-cephem-4-carboxylate], the “acute toxic value LD50” value in [1] was ≤ 100 mg/kg.
Consider `CO/N=C(\C(=O)N[C@@H]1C(=O)N2C(C(=O)[O-])=C(C[N+]34CCC(O)(CC3)C4)CS[C@H]12)c1csc(N)n1` [Example 1, 7β-[(Z)-2-(2-Aminothiazol-4-yl)-2-methoxyiminoacetamido]-3-(4-hydroxy-1,4-methylene-1-piperidinio)methyl-3-cephem-4-carboxylate], for which the MIC in series [2] was determined as 25 µg/mL (≈ 49.2 µM); in series [3] it was 1.56 µg/mL (≈ 3.07 µM); in series [4], 100 µg/mL (≈ 197 µM); in [5] it was 0.1 µg/mL (≈ 0.197 µM); in series [6] it was 0.8 µg/mL (≈ 1.57 µM); in series [8] it was 0.05 µg/mL (≈ 0.0983 µM). Inhibition of growth in series [9] (MIC) required 0.1 µg/mL (≈ 0.197 µM). In [7], the 50% lethal dose (LD50) was > 3000 mg/kg.
For `CO/N=C(\C(=O)N[C@@H]1C(=O)N2C(C(=O)[O-])=C(C[N+]34CCC(C(N)=O)(CC3)CC4)CS[C@H]12)c1csc(N)n1` [Example 5, 7β-[(Z)-2-(2-Aminothiazol-4-yl)-2-methoxyiminoacetamido]-3-(4-carbamoyl-1-quinuclidinio)methyl-3-cephem-4-carboxylate], the minimal inhibitory concentration (MIC) was 12.5 µg/mL (≈ 22.7 µM) in series [2]; 1.56 µg/mL (≈ 2.84 µM) in series [3]; 100 µg/mL (≈ 182 µM) in series [4]; 0.05 µg/mL (≈ 0.091 µM) in series [5]; 1.56 µg/mL (≈ 2.84 µM) in [6]; 0.05 µg/mL (≈ 0.091 µM) in series [8]. Also, the lowest concentration to inhibit growth in series [9] (MIC) was 0.1 µg/mL (≈ 0.182 µM). For the same compound, the LD50 in series [7] is > 3000 mg/kg.
In the case of `CO/N=C(\C(=O)N[C@@H]1C(=O)N2C(C(=O)[O-])=C(C[N+]34CCC(O)(CC3)CC4)CS[C@H]12)c1nsc(N)n1` [Example 4, 7β-[(Z)-2-(5-Amino-1,2,4-thiadiazol-3-yl)-2-methoxyiminoacetamido]-3-(4-hydroxy-1-quinuclidinio)methyl-3-cephem-4-carboxylate], the MIC in [2] turned out to be 6.25 µg/mL (≈ 11.9 µM); in series [3], 0.8 µg/mL (≈ 1.53 µM); in [4], 25 µg/mL (≈ 47.7 µM); in [5], 0.2 µg/mL (≈ 0.382 µM); in series [6] it was 1.56 µg/mL (≈ 2.98 µM); in [8], 0.1 µg/mL (≈ 0.191 µM). The same compound registered a minimal inhibitory concentration (MIC) in series [9] of 0.1 µg/mL (≈ 0.191 µM). In addition, the LD50 in series [7] was > 3000 mg/kg.
With `CO/N=C(\C(=O)N[C@@H]1C(=O)N2C(C(=O)[O-])=C(C[N+]34CCC(C)(CC3)CC4)CS[C@H]12)c1nsc(N)n1` [Example 15, 7β-[(Z)-2-(5-Amino-1,2,4-thiadiazol-3-yl)-2-methoxyiminoacetamido]-3-(4-methyl-1-quinuclidinio)methyl-3-cephem-4-carboxylate], the MIC in [2] was 1.56 µg/mL (≈ 2.99 µM); in series [3], 0.8 µg/mL (≈ 1.53 µM); in series [4] it was 50 µg/mL (≈ 95.9 µM); in [5], 0.2 µg/mL (≈ 0.383 µM); in [6], 0.8 µg/mL (≈ 1.53 µM); in series [8] it was 0.05 µg/mL (≈ 0.0959 µM). For the same compound, the MIC in [9] stood at 0.05 µg/mL (≈ 0.0959 µM).
For the compound `CO/N=C(\C(=O)N[C@@H]1C(=O)N2C(C(=O)[O-])=C(C[N+]34CCC(C(N)=O)(CC3)CC4)CS[C@H]12)c1nsc(N)n1` [Example 6, 7β-[(Z)-2-(5-Amino-1,2,4-thiadiazol-3-yl)-2-methoxyiminoacetamido]-3-(4-carbamoyl-1-quinuclidinio)methyl-3-cephem-4-carboxylate], the MIC in series [2] was 3.13 µg/mL (≈ 5.68 µM); in series [3], 0.4 µg/mL (≈ 0.726 µM); in series [4], 25 µg/mL (≈ 45.4 µM); in series [5] it was 0.2 µg/mL (≈ 0.363 µM); in series [6], 3.13 µg/mL (≈ 5.68 µM); in [8], 0.1 µg/mL (≈ 0.182 µM). Also, the MIC in series [9] came to 0.1 µg/mL (≈ 0.182 µM). Also, in series [7], the LD50 is > 3000 mg/kg.
`CO/N=C(\C(=O)N[C@@H]1C(=O)N2C(C(=O)[O-])=C(C[N+]34CCC(O)(CC3)C4)CS[C@H]12)c1nsc(N)n1` [Example 2, 7β-[(Z)-2-(5-Amino-1,2,4-thiadiazol-3-yl)-2-methoxyiminoacetamido]-3-(4-hydroxy-1,4-methylene-1-piperidinio)methyl-3-cephem-4-carboxylate]: the MIC in [2] was 12.5 µg/mL (≈ 24.5 µM); in series [3], 0.8 µg/mL (≈ 1.57 µM); in series [4] it was 50 µg/mL (≈ 98.1 µM); in series [5], 0.2 µg/mL (≈ 0.392 µM); in [6], 0.8 µg/mL (≈ 1.57 µM); in series [8] it was 0.1 µg/mL (≈ 0.196 µM). In addition, the MIC in series [9] was 0.1 µg/mL (≈ 0.196 µM). Also, in series [7], the 50% lethal dose (LD50) is > 3000 mg/kg.
Turning to `CO/N=C(\C(=O)N[C@@H]1C(=O)N2C(C(=O)[O-])=C(C[N+]34CCC(CO)(CC3)CC4)CS[C@H]12)c1nsc(N)n1` [Example 14, 7β-[(Z)-2-(5-Amino-1,2,4-thiadiazol-3-yl)-2-methoxyiminoacetamido]-3-[4-hydroxymethyl-1-quinuclidinio]methyl-3-cephem-4-carboxylate], the MIC turned out to be 3.13 µg/mL (≈ 5.82 µM) in series [2]; 0.8 µg/mL (≈ 1.49 µM) in series [3]; 50 µg/mL (≈ 93 µM) in [4]; 0.2 µg/mL (≈ 0.372 µM) in series [5]; 1.56 µg/mL (≈ 2.9 µM) in series [6]; 0.1 µg/mL (≈ 0.186 µM) in series [8]. In addition, the MIC in [9] was found to be 0.1 µg/mL (≈ 0.186 µM).
Turning to `CO/N=C(\C(=O)N[C@@H]1C(=O)N2C(C(=O)[O-])=C(C[N+]34CCC(O)(CC3)CC4)CS[C@H]12)c1csc(N)n1` [Example 3, 7β-[(Z)-2-(2-Aminothiazol-4-yl)-2-methoxyiminoacetamido]-3-(4-hydroxy-1-quinuclidinio)methyl-3-cephem-4-carboxylate], the MIC in series [2] is 6.25 µg/mL (≈ 12 µM); in series [3], 1.56 µg/mL (≈ 2.99 µM); in [4], 100 µg/mL (≈ 191 µM); in series [5], 0.1 µg/mL (≈ 0.191 µM); in [6], 0.8 µg/mL (≈ 1.53 µM); in series [8], 0.05 µg/mL (≈ 0.0957 µM). Besides, it took 0.1 µg/mL (≈ 0.191 µM) to inhibit growth in series [9] (MIC). In addition, the 50% lethal dose (LD50) in series [7] was > 3000 mg/kg.
